Common to all, as to assay type: cell-based
The test system of assay [1] is Pasteurella multocida PM 6267 (P 2225 (L386), reference strain, mouse infection strain). Put plainly: MIC, broth-microdilution (CLSI VET01-A4), strain PM 6267. The note with it: Pasteurella multocida strain PM 6267, broth-microdilution; unit assumed. As for the experimental part:
(§1) For example, representative compounds were tested against ***, Mannheimia haemolytica and Pasteurella multocida, using the conventional broth-dilution assay.
(§2) The Minimum inhibitory concentrations (MIC) of compounds according to the invention for a number of veterinary bacterial pathogens were determined by the broth-microdilution method according to CLSI document VET01-A4.
(§3) Microdilution trays containing a doubling dilution series of the test compound were used for the tests. The MIC results were interpreted according to the CLSI documents VET01-S3. The lowest concentration of compound at which no visible growth (i.e. no turbidity) detected by the unaided eye was recorded as the MIC.

Assay [2] has as its system Pasteurella multocida PM 10775 (080130003051, BRD field isolate). Put plainly: MIC, broth-microdilution (CLSI VET01-A4), strain PM 10775. The note with it: Pasteurella multocida strain PM 10775, broth-microdilution; unit assumed. As for the experimental part:
as §1, §2, §3
A general note: In broth dilution the organism is exposed to a series of concentrations in liquid medium.

Assay [3] deals with Mannheimia haemolytica MH 13093 (XB0472-6014.1, BRD field isolate). Briefly: MIC, broth-microdilution (CLSI VET01-A4), strain MH 13093. The conditions noted are these: Mannheimia haemolytica strain MH 13093, broth-microdilution; unit assumed. As for the experimental part: as §1, §2, §3
Assay [4] relates to Mannheimia haemolytica MH 10720 (154, BRD field isolate). Put plainly: MIC, broth-microdilution (CLSI VET01-A4), strain MH 10720. The conditions noted are these: Mannheimia haemolytica strain MH 10720, broth-microdilution; unit assumed. The method, then: as §1, §2, §3
For assay [5], the system named is Pasteurella multocida PM 12080 (IV102277-0093, BRD field isolate). Briefly: MIC, broth-microdilution (CLSI VET01-A4), strain PM 12080. The note with it: Pasteurella multocida strain PM 12080, broth-microdilution; unit assumed. As for the experimental part:
as §1, §2, §3

For assay [6], the system named is Mannheimia haemolytica MH 13065 (XB0446-6003.9, BRD field isolate). Briefly: MIC, broth-microdilution (CLSI VET01-A4), strain MH 13065. The conditions noted are these: Mannheimia haemolytica strain MH 13065, broth-microdilution; unit assumed. The method, then: as §1, §2, §3
Assay [7] concerns Mannheimia haemolytica MH 6374 (ATCC 33396, reference strain). Briefly: MIC, broth-microdilution (CLSI VET01-A4), strain MH 6374. The conditions noted are these: Mannheimia haemolytica strain MH 6374, broth-microdilution; unit assumed. As for the experimental part: as §1, §2, §3
Assay [8] concerns Mannheimia haemolytica MH 12587 (1071, BRD field isolate, macrolide-resistance: erm+, E+). Put plainly: MIC, broth-microdilution (CLSI VET01-A4), strain MH 12587. The note with it: Mannheimia haemolytica strain MH 12587, broth-microdilution; unit assumed. As for the experimental part: as §1, §2, §3
The test system of assay [9] is Mannheimia haemolytica MH 6357 (M7/2, reference strain, cattle infection strain). Briefly: MIC, broth-microdilution (CLSI VET01-A4), strain MH 6357. The conditions noted are these: Mannheimia haemolytica strain MH 6357, broth-microdilution; unit assumed. The method, then: as §1, §2, §3

Molecules are shown by their SMILES. Converted amounts (≈) assume the structure as drawn.

For the compound `O=C(N[C@@H](CO)C(=O)NO)c1ccc(C#Cc2ccc(CN3CCS(=O)(=O)CC3)cc2)cc1` [Compound 78], the MIC PM 6267 in assay [1] was not above 0.1 µg/mL. For the same compound, the MIC PM 10775 in assay [2] was not above 0.1 µg/mL. Further, the MIC MH 13093 in [3] came out at 6.3 µg/mL (≈ 13.4 µM). In [4], this compound had an MIC MH 10720 of 3.1 µg/mL (≈ 6.57 µM). The same compound showed an MIC PM 12080 in [5] of 0.8 µg/mL (≈ 1.7 µM). Moreover, the MIC MH 13065 in [6] turned out to be 6.3 µg/mL (≈ 13.4 µM). Further, the MIC MH 6374 in [7] was found to be 6.3 µg/mL (≈ 13.4 µM). In [8], this compound displayed an MIC MH 12587 of 12.5 µg/mL (≈ 26.5 µM). In assay [9], this compound gave an MIC MH 6357 of 6.3 µg/mL (≈ 13.4 µM).
Compound `CC(C)(C)C1CCN(Cc2ccc(C#Cc3ccc(C(=O)N[C@@H](CO)C(=O)NO)cc3)cc2)CC1` [Compound 79] showed an MIC PM 6267 in assay [1] of 0.4 µg/mL (≈ 0.838 µM). Besides, the MIC PM 10775 in assay [2] was not above 0.1 µg/mL. The same compound returned an MIC MH 13093 in assay [3] of 25 µg/mL (≈ 52.3 µM). The MIC MH 10720 in assay [4] amounted to 3.1 µg/mL (≈ 6.49 µM). For the same compound, the MIC PM 12080 in assay [5] turned out to be 1.6 µg/mL (≈ 3.35 µM). Also, in assay [6], the MIC MH 13065 was determined as 12.5 µg/mL (≈ 26.2 µM). In assay [7], the MIC MH 6374 worked out at 25 µg/mL (≈ 52.3 µM). In [8], this compound displayed an MIC MH 12587 of 25 µg/mL (≈ 52.3 µM). Moreover, the MIC MH 6357 in [9] worked out at 12.5 µg/mL (≈ 26.2 µM).
In the case of `O=C(N[C@@H](CO)C(=O)NO)c1ccc(C#Cc2ccc(CN3CCC(c4ccccc4)CC3)cc2)cc1` [Compound 80], in [1], the MIC PM 6267 was not above 0.1 µg/mL. In [2], this compound returned an MIC PM 10775 not above 0.1 µg/mL. The MIC MH 13093 in assay [3] is 6.3 µg/mL (≈ 12.7 µM). Moreover, in assay [4], the MIC MH 10720 was 0.8 µg/mL (≈ 1.61 µM). The compound also gave an MIC PM 12080 in assay [5] of 0.8 µg/mL (≈ 1.61 µM). This compound had an MIC MH 13065 in [6] of 1.6 µg/mL (≈ 3.22 µM). Besides, the MIC MH 6374 in [7] was determined as 1.6 µg/mL (≈ 3.22 µM). The same compound came in with an MIC MH 12587 in [8] of 3.1 µg/mL (≈ 6.23 µM). The MIC MH 6357 in [9] was found to be 1.6 µg/mL (≈ 3.22 µM).
Compound `O=C(N[C@@H](CO)C(=O)NO)c1ccc(C#Cc2ccc(CN3CCN(c4ccccc4)CC3)cc2)cc1` [Compound 81] had an MIC PM 6267 in assay [1] not above 0.1 µg/mL. This compound yielded an MIC PM 10775 in assay [2] not above 0.1 µg/mL. The MIC MH 13093 in assay [3] was found to be 6.3 µg/mL (≈ 12.6 µM). For the same compound, in assay [4], the MIC MH 10720 came to 0.8 µg/mL (≈ 1.6 µM). The same compound gave an MIC PM 12080 in assay [5] of 0.8 µg/mL (≈ 1.6 µM). In assay [6], this compound gave an MIC MH 13065 of 3.1 µg/mL (≈ 6.22 µM). The MIC MH 6374 in assay [7] was determined as 3.1 µg/mL (≈ 6.22 µM). In assay [8], this compound showed an MIC MH 12587 of 25 µg/mL (≈ 50.1 µM). The same compound returned an MIC MH 6357 in assay [9] of 3.1 µg/mL (≈ 6.22 µM).
The compound `O=C(N[C@@H](CO)C(=O)NO)c1ccc(C#Cc2ccc(CN3CCN(c4ccccn4)CC3)cc2)cc1` [Compound 82] displayed an MIC PM 6267 in assay [1] not above 0.1 µg/mL. Besides, in assay [2], the MIC PM 10775 is not above 0.1 µg/mL. The same compound yielded an MIC MH 13093 in assay [3] of 3.1 µg/mL (≈ 6.21 µM). This compound also displayed an MIC MH 10720 in assay [4] of 0.4 µg/mL (≈ 0.801 µM). This compound registered an MIC PM 12080 in [5] of 0.8 µg/mL (≈ 1.6 µM). In assay [6], this compound showed an MIC MH 13065 of 6.3 µg/mL (≈ 12.6 µM). Further, the MIC MH 6374 in [7] was found to be 0.8 µg/mL (≈ 1.6 µM). The compound also gave an MIC MH 12587 in [8] of 3.1 µg/mL (≈ 6.21 µM). Moreover, the MIC MH 6357 in [9] amounted to 1.6 µg/mL (≈ 3.2 µM).
Regarding `O=C(N[C@@H](CO)C(=O)NO)c1ccc(C#Cc2ccc(CN3CCc4ccccc4C3)cc2)cc1` [Compound 83], the MIC PM 6267 in assay [1] was not above 0.1 µg/mL. This compound yielded an MIC PM 10775 in assay [2] not above 0.1 µg/mL. The same compound registered an MIC MH 13093 in assay [3] of 1.6 µg/mL (≈ 3.41 µM). The same compound displayed an MIC MH 10720 in assay [4] of 0.4 µg/mL (≈ 0.852 µM). Moreover, in assay [5], the MIC PM 12080 stood at 0.8 µg/mL (≈ 1.7 µM). Moreover, the MIC MH 13065 in assay [6] is 0.8 µg/mL (≈ 1.7 µM). The MIC MH 6374 in [7] stood at 0.8 µg/mL (≈ 1.7 µM). In addition, in [8], the MIC MH 12587 amounted to 1.6 µg/mL (≈ 3.41 µM). The MIC MH 6357 in [9] is 25 µg/mL (≈ 53.2 µM).
Compound `COc1cc2c(cc1OC)CN(Cc1ccc(C#Cc3ccc(C(=O)N[C@@H](CO)C(=O)NO)cc3)cc1)CC2` [Compound 84] gave an MIC PM 6267 in assay [1] not above 0.1 µg/mL. Moreover, the MIC PM 10775 in assay [2] was not above 0.1 µg/mL. The compound further showed an MIC MH 13093 in assay [3] of 3.1 µg/mL (≈ 5.85 µM). The same compound displayed an MIC MH 10720 in assay [4] of 0.8 µg/mL (≈ 1.51 µM). This compound showed an MIC PM 12080 in assay [5] of 0.4 µg/mL (≈ 0.755 µM). In addition, the MIC MH 13065 in [6] is 3.1 µg/mL (≈ 5.85 µM). This compound also came in with an MIC MH 6374 in [7] of 3.1 µg/mL (≈ 5.85 µM). The compound further had an MIC MH 12587 in assay [8] of 3.1 µg/mL (≈ 5.85 µM). For the same compound, the MIC MH 6357 in [9] turned out to be 3.1 µg/mL (≈ 5.85 µM).
`O=C(N[C@@H](CO)C(=O)NO)c1ccc(C#Cc2ccc(CNCc3ccccc3)cc2)cc1` [Compound 85] displayed an MIC PM 6267 in assay [1] not above 0.1 µg/mL. This compound had an MIC PM 10775 in assay [2] not above 0.1 µg/mL. The compound also came in with an MIC MH 13093 in assay [3] of 3.1 µg/mL (≈ 6.99 µM). In addition, in assay [4], the MIC MH 10720 turned out to be 1.6 µg/mL (≈ 3.61 µM). The compound further displayed an MIC PM 12080 in assay [5] of 0.8 µg/mL (≈ 1.8 µM). In addition, in assay [6], the MIC MH 13065 was determined as 1.6 µg/mL (≈ 3.61 µM). In assay [7], this compound showed an MIC MH 6374 of 0.8 µg/mL (≈ 1.8 µM). The MIC MH 12587 in assay [8] stood at 3.1 µg/mL (≈ 6.99 µM). Moreover, the MIC MH 6357 in assay [9] was 3.1 µg/mL (≈ 6.99 µM).

Source of the values: patent US11034650B2, “Compounds useful for treating a Mannheimia haemolytica or Histophilus somni infection” (Intervet Inc., priority 2016, dated 2021).
